# In the supplement of paper PMC10307832:
# Legend:
# Test in all cases: relative viability (nuclei count vs DMSO), 5 days (fraction); higher = more cells survive
# CAL-12T = system: CAL-12T
# In short: (§1)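 Medians of duplicate plates are given as relative viability. That measure is the nuclei count in treated wells divided by the count in vehicle wells. Counts were taken on 4× images of lung cancer cell lines in 1536-well plates, 5 days after pin-tool dosing the day after seeding with one drug alone or a fixed anchor-drug dose plus five library-drug doses (not always all listed) in √10 steps.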
# COR-L 105 = system: COR-L 105
# In short: as §1
# ChaGo-K-1 = system: ChaGo-K-1
# In short: as §1
# EMC-BAC-2 = system: EMC-BAC-2
# In short: as §1
# EPLC-272H = system: EPLC-272H
# In short: as §1
# HCC-15 = system: HCC-15
# In short: as §1
# HCC-78 = system: HCC-78
# In short: as §1
# HOP-62 = system: HOP-62
# In short: as §1
# LXF-289 = system: LXF-289
# In short: as §1
# NCI-H1666 = system: NCI-H1666
# In short: as §1
# NCI-H1755 = system: NCI-H1755
# In short: as §1
# NCI-H1915 = system: NCI-H1915
# In short: as §1
# NCI-H1975 = system: NCI-H1975
# In short: as §1
# NCI-H2023 = system: NCI-H2023
# In short: as §1
# NCI-H2085 = system: NCI-H2085
# In short: as §1
# NCI-H2126 = system: NCI-H2126
# In short: as §1
# NCI-H3122 = system: NCI-H3122
# In short: as §1
# NCI-H322M = system: NCI-H322M
# In short: as §1
# NCI-H358 = system: NCI-H358
# In short: as §1
# NCI-H441 = system: NCI-H441
# In short: as §1
# UMC-11 = system: UMC-11
# In short: as §1
structure (smiles),measurement,setting,value
O=c1cc(N2CCOCC2)oc2c(-c3cccc4c3sc3ccccc34)cccc12 + CC(=O)Nc1cccc(-n2c(=O)n(C3CC3)c(=O)c3c(Nc4ccc(I)cc4F)n(C)c(=O)c(C)c32)c1 [Trametinib] (partner 0.02 µM),relative viability,CAL-12T; first compound 0.01 µM,0.334
same,relative viability,CAL-12T; first compound 0.03162 µM,0.417
same,relative viability,CAL-12T; first compound 0.1 µM,0.354
same,relative viability,CAL-12T; first compound 0.3162 µM,0.381
same,relative viability,CAL-12T; first compound 1 µM,0.363
same,relative viability,COR-L 105; first compound 0.01 µM,0.414
same,relative viability,COR-L 105; first compound 0.03162 µM,0.427
same,relative viability,COR-L 105; first compound 0.1 µM,0.446
same,relative viability,COR-L 105; first compound 0.3162 µM,0.451
same,relative viability,COR-L 105; first compound 1 µM,0.429
same,relative viability,ChaGo-K-1; first compound 0.01 µM,0.845
same,relative viability,ChaGo-K-1; first compound 0.03162 µM,0.958
same,relative viability,ChaGo-K-1; first compound 0.1 µM,0.966
same,relative viability,ChaGo-K-1; first compound 0.3162 µM,0.893
same,relative viability,ChaGo-K-1; first compound 1 µM,0.882
same,relative viability,EMC-BAC-2; first compound 0.01 µM,0.976
same,relative viability,EMC-BAC-2; first compound 0.03162 µM,0.93
same,relative viability,EMC-BAC-2; first compound 0.1 µM,0.931
same,relative viability,EMC-BAC-2; first compound 0.3162 µM,0.774
same,relative viability,EMC-BAC-2; first compound 1 µM,0.865
same,relative viability,EPLC-272H; first compound 0.01 µM,0.301
same,relative viability,EPLC-272H; first compound 0.03162 µM,0.285
same,relative viability,EPLC-272H; first compound 0.1 µM,0.333
same,relative viability,EPLC-272H; first compound 0.3162 µM,0.284
same,relative viability,EPLC-272H; first compound 1 µM,0.279
same,relative viability,HCC-15; first compound 0.01 µM,0.384
same,relative viability,HCC-15; first compound 0.03162 µM,0.388
same,relative viability,HCC-15; first compound 0.1 µM,0.288
same,relative viability,HCC-15; first compound 0.3162 µM,0.368
same,relative viability,HCC-15; first compound 1 µM,0.364
same,relative viability,HCC-78; first compound 0.01 µM,0.801
same,relative viability,HCC-78; first compound 0.03162 µM,0.699
same,relative viability,HCC-78; first compound 0.1 µM,0.899
same,relative viability,HCC-78; first compound 0.3162 µM,0.806
same,relative viability,HCC-78; first compound 1 µM,0.651
same,relative viability,HOP-62; first compound 0.01 µM,0.379
same,relative viability,HOP-62; first compound 0.03162 µM,0.384
same,relative viability,HOP-62; first compound 0.1 µM,0.358
same,relative viability,HOP-62; first compound 0.3162 µM,0.385
same,relative viability,HOP-62; first compound 1 µM,0.373
same,relative viability,LXF-289; first compound 0.01 µM,0.672
same,relative viability,LXF-289; first compound 0.03162 µM,0.629
same,relative viability,LXF-289; first compound 0.1 µM,0.662
same,relative viability,LXF-289; first compound 0.3162 µM,0.673
same,relative viability,LXF-289; first compound 1 µM,0.695
same,relative viability,NCI-H1666; first compound 0.01 µM,0.882
same,relative viability,NCI-H1666; first compound 0.03162 µM,0.829
same,relative viability,NCI-H1666; first compound 0.1 µM,0.84
same,relative viability,NCI-H1666; first compound 0.3162 µM,0.814
same,relative viability,NCI-H1666; first compound 1 µM,0.849
same,relative viability,NCI-H1755; first compound 0.01 µM,0.807
same,relative viability,NCI-H1755; first compound 0.03162 µM,0.83
same,relative viability,NCI-H1755; first compound 0.1 µM,0.81
same,relative viability,NCI-H1755; first compound 0.3162 µM,0.741
same,relative viability,NCI-H1755; first compound 1 µM,0.819
same,relative viability,NCI-H1915; first compound 0.01 µM,0.32
same,relative viability,NCI-H1915; first compound 0.03162 µM,0.32
same,relative viability,NCI-H1915; first compound 0.1 µM,0.299
same,relative viability,NCI-H1915; first compound 0.3162 µM,0.3
same,relative viability,NCI-H1915; first compound 1 µM,0.3
same,relative viability,NCI-H1975; first compound 0.01 µM,0.434
same,relative viability,NCI-H1975; first compound 0.03162 µM,0.337
same,relative viability,NCI-H1975; first compound 0.1 µM,0.401
same,relative viability,NCI-H1975; first compound 0.3162 µM,0.361
same,relative viability,NCI-H1975; first compound 1 µM,0.293
same,relative viability,NCI-H2023; first compound 0.01 µM,0.676
same,relative viability,NCI-H2023; first compound 0.03162 µM,0.574
same,relative viability,NCI-H2023; first compound 0.1 µM,0.624
same,relative viability,NCI-H2023; first compound 0.3162 µM,0.601
same,relative viability,NCI-H2023; first compound 1 µM,0.396
same,relative viability,NCI-H2085; first compound 0.01 µM,0.515
same,relative viability,NCI-H2085; first compound 0.03162 µM,0.541
same,relative viability,NCI-H2085; first compound 0.1 µM,0.515
same,relative viability,NCI-H2085; first compound 0.3162 µM,0.577
same,relative viability,NCI-H2085; first compound 1 µM,0.454
same,relative viability,NCI-H2126; first compound 0.01 µM,0.543
same,relative viability,NCI-H2126; first compound 0.03162 µM,0.52
same,relative viability,NCI-H2126; first compound 0.1 µM,0.54
same,relative viability,NCI-H2126; first compound 0.3162 µM,0.567
same,relative viability,NCI-H2126; first compound 1 µM,0.569
same,relative viability,NCI-H3122; first compound 0.01 µM,0.217
same,relative viability,NCI-H3122; first compound 0.03162 µM,0.225
same,relative viability,NCI-H3122; first compound 0.1 µM,0.245
same,relative viability,NCI-H3122; first compound 0.3162 µM,0.216
same,relative viability,NCI-H3122; first compound 1 µM,0.202
same,relative viability,NCI-H322M; first compound 0.01 µM,0.494
same,relative viability,NCI-H322M; first compound 0.03162 µM,0.486
same,relative viability,NCI-H322M; first compound 0.3162 µM,0.495
same,relative viability,NCI-H322M; first compound 1 µM,0.494
same,relative viability,NCI-H358; first compound 0.01 µM,0.133
same,relative viability,NCI-H358; first compound 0.03162 µM,0.14
same,relative viability,NCI-H358; first compound 0.1 µM,0.115
same,relative viability,NCI-H358; first compound 0.3162 µM,0.128
same,relative viability,NCI-H358; first compound 1 µM,0.165
same,relative viability,NCI-H441; first compound 0.01 µM,0.513
same,relative viability,NCI-H441; first compound 0.03162 µM,0.431
same,relative viability,NCI-H441; first compound 0.1 µM,0.406
same,relative viability,NCI-H441; first compound 0.3162 µM,0.479
same,relative viability,NCI-H441; first compound 1 µM,0.42
same,relative viability,UMC-11; first compound 0.01 µM,0.734
same,relative viability,UMC-11; first compound 0.03162 µM,0.741
same,relative viability,UMC-11; first compound 0.1 µM,0.773
same,relative viability,UMC-11; first compound 0.3162 µM,0.756
same,relative viability,UMC-11; first compound 1 µM,0.832
